From patent US20120220562A1, “Anti-Viral Compounds” (ABBOTT LABAORATORIES, priority 2011, published 2012)

What follows are molecules tested on HCV 1b-Con1 replicon (assay: HCV 1b-Con1 replicon assay in the presence of 5% FBS). Conditions: Hepatitis C virus.
Type: cell-based

Which EC50 does the source give for `COC(=O)N[C@H](C(=O)N1CCC[C@H]1c1nc2cc([C@H]3CC[C@H](c4cc5nc([C@@H]6CCCN6C(=O)[C@@H](NC(=O)OC)C(C)C)[nH]c5cc4F)N3c3cc(F)c(N4CCC(c5ccc6ccccc6c5)CC4)c(F)c3)c(F)cc2[nH]1)C(C)C` [Example 4.30, methyl {(2S)-1-[(2S)-2-{5-[(2R,5R)-1-{3,5-difluoro-4-[4-(2-naphthyl)piperidin-1-yl]phenyl}-5-{6-fluoro-2-[(2S)-1-{(2S)-2-[(methoxycarbonyl)amino]-3-methylbutanoyl}pyrrolidin-2-yl]-1H-benzimidazol-5-yl}pyrrolidin-2-yl]-6-fluoro-1H-benzimidazol-2-yl}pyrrolidin-1-yl]-3-methyl-1-oxobutan-2-yl}carbamate] here?
The EC50 was less than 0.1 nM.

`COC(=O)N[C@H](C(=O)N1CCC[C@H]1c1nc2ccc([C@H]3CC[C@H](c4ccc5nc([C@@H]6CCCN6C(=O)[C@@H](NC(=O)OC)C(C)C)[nH]c5c4)N3c3cc(F)c(N4CCC(Cc5ccccc5)CC4)c(F)c3)cc2[nH]1)C(C)C` [Example 4.47, methyl {(2S)-1-[(2S)-2-{6-[(2R,5R)-1-[4-(4-benzylpiperidin-1-yl)-3,5-difluorophenyl]-5-{2-[(2S)-1-{(2S)-2-[(methoxycarbonyl)amino]-3-methylbutanoyl}pyrrolidin-2-yl]-1H-benzimidazol-6-yl}pyrrolidin-2-yl]-1H-benzimidazol-2-yl}pyrrolidin-1-yl]-3-methyl-1-oxobutan-2-yl}carbamate] was tested. Which EC50 did it give?
Its EC50 is less than 0.1 nM.

For `COC(=O)N[C@H](C(=O)N1CCC[C@H]1c1nc2cc([C@H]3CC[C@H](c4ccc5[nH]c([C@@H]6CCCN6C(=O)[C@@H](NC(=O)OC)C(C)C)nc5c4)N3c3cc(F)c(N4CCC(c5ccc(F)c(F)c5)CC4)c(F)c3)ccc2[nH]1)C(C)C` [Example 3.44, methyl {(2S)-1-[(2S)-2-{5-[(2R,5R)-1-{4-[4-(3,4-difluorophenyl)piperidin-1-yl]-3,5-difluorophenyl}-5-{2-[(2S)-1-{(2S)-2-[(methoxycarbonyl)amino]-3-methylbutanoyl}pyrrolidin-2-yl]-1H-benzimidazol-5-yl}pyrrolidin-2-yl]-1H-benzimidazol-2-yl}pyrrolidin-1-yl]-3-methyl-1-oxobutan-2-yl}carbamate], which EC50 is on record?
The EC50 was less than 0.1 nM.

Which EC50 does the source give for `CCOC(=O)N[C@H](C(=O)N1CCC[C@H]1c1nc2cc([C@H]3CC[C@H](c4ccc5[nH]c([C@@H]6CCCN6C(=O)[C@@H](NC(=O)OCC)C(C)C)nc5c4)N3c3cc(F)c(N4CCC(c5ccccc5)CC4)c(F)c3)ccc2[nH]1)C(C)C` [Example 3.34, ethyl {(2S)-1-[(2S)-2-{5-[(2R,5R)-1-[3,5-difluoro-4-(4-phenylpiperidin-1-yl)phenyl]-5-{2-[(2S)-1-{(2S)-2-[(ethoxycarbonyl)amino]-3-methylbutanoyl}pyrrolidin-2-yl]-1H-benzimidazol-5-yl}pyrrolidin-2-yl]-1H-benzimidazol-2-yl}pyrrolidin-1-yl]-3-methyl-1-oxobutan-2-yl}carbamate] here?
The EC50 was less than 0.1 nM.

`COC(=O)N[C@H](C(=O)N1CCC[C@H]1c1nc2ccc([C@H]3CC[C@H](c4ccc5nc([C@@H]6CCCN6C(=O)[C@@H](NC(=O)OC)C(C)C)[nH]c5c4)N3c3cc(F)c(N4CCC(C)CC4)c(F)c3)cc2[nH]1)C(C)C` [Example 2.9, methyl {(2S)-1-[(2S)-2-{6-[(2R,5R)-1-[3,5-difluoro-4-(4-methylpiperidin-1-yl)phenyl]-5-{2-[(2S)-1-{(2S)-2-[(methoxycarbonyl)amino]-3-methylbutanoyl}pyrrolidin-2-yl]-1H-benzimidazol-6-yl}pyrrolidin-2-yl]-1H-benzimidazol-2-yl}pyrrolidin-1-yl]-3-methyl-1-oxobutan-2-yl}carbamate] was tested. Which EC50 did it give?
Its EC50 is less than 0.1 nM.

With `COC(=O)N[C@H](C(=O)N1CCC[C@H]1c1nc2cc([C@H]3CC[C@H](c4cc5nc([C@@H]6CCCN6C(=O)[C@@H](NC(=O)OC)C6CCCC6)[nH]c5cc4F)N3c3cc(F)c(N4CCC(c5ccccc5)CC4)c(F)c3)c(F)cc2[nH]1)C1CCCC1` [Example 4.40, dimethyl ({(2R,5R)-1-[3,5-difluoro-4-(4-phenylpiperidin-1-yl)phenyl]pyrrolidine-2,5-diyl}bis{(6-fluoro-1H-benzimidazole-5,2-diyl)(2S)pyrrolidine-2,1-diyl[(1S)-1-cyclopentyl-2-oxoethane-2,1-diyl]})biscarbamate] as the molecule, how does the EC50 read?
Its EC50 is less than 0.1 nM.

How did the EC50 turn out when `COC(=O)N[C@H](C(=O)N1CCC[C@H]1c1nc2cc([C@H]3CC[C@H](c4ccc5[nH]c([C@@H]6CCCN6C(=O)[C@@H](NC(=O)OC)C(C)C)nc5c4)N3c3ccc(N4CCCCC4)c(C)c3)ccc2[nH]1)C(C)C` [Example 4.2, methyl {(2S)-1-[(2S)-2-(5-{(2R,5R)-5-{2-[(2S)-1-{(2S)-2-[(methoxycarbonyl)amino]-3-methylbutanoyl}pyrrolidin-2-yl]-1H-benzimidazol-5-yl}-1-[3-methyl-4-(piperidin-1-yl)phenyl]pyrrolidin-2-yl}-1H-benzimidazol-2-yl)pyrrolidin-1-yl]-3-methyl-1-oxobutan-2-yl}carbamate] was run?
The EC50 was less than 0.1 nM.

With `COC(=O)N[C@H](C(=O)N1CCC[C@H]1c1nc2ccc([C@H]3CC[C@H](c4ccc5nc([C@@H]6CCCN6C(=O)[C@@H](NC(=O)OC)C(C)C)[nH]c5c4)N3c3cc(F)c(C4CC4)c(F)c3)cc2[nH]1)C(C)C` [Example 4.15, methyl {(2S)-1-[(2S)-2-{6-[(2R,5R)-1-(4-cyclopropyl-3,5-difluorophenyl)-5-{2-[(2S)-1-{(2S)-2-[(methoxycarbonyl)amino]-3-methylbutanoyl}pyrrolidin-2-yl]-1H-benzimidazol-6-yl}pyrrolidin-2-yl]-1H-benzimidazol-2-yl}pyrrolidin-1-yl]-3-methyl-1-oxobutan-2-yl}carbamate] as the molecule, how does the EC50 read?
The EC50 was less than 0.1 nM.

With `COC(=O)N[C@H](C(=O)N1CCC[C@H]1c1nc2c(C)c([C@H]3CC[C@H](c4ccc5[nH]c([C@@H]6CCCN6C(=O)[C@@H](NC(=O)OC)C(C)C)nc5c4C)N3c3ccc(C(C)(C)C)cc3)ccc2[nH]1)C(C)C` [Example 6.7, methyl {(2S)-1-[(2S)-2-{5-[(2R,5R)-1-(4-tert-butylphenyl)-5-{2-[(2S)-1-{(2S)-2-[(methoxycarbonyl)amino]-3-methylbutanoyl}pyrrolidin-2-yl]-4-methyl-1H-benzimidazol-5-yl}pyrrolidin-2-yl]-4-methyl-1H-benzimidazol-2-yl}pyrrolidin-1-yl]-3-methyl-1-oxobutan-2-yl}carbamate] as the molecule, how does the EC50 read?
Its EC50 is less than 0.1 nM.

`COC(=O)N[C@H](C(=O)N1CCC[C@H]1c1nc2c(Cl)c([C@H]3CC[C@@H](c4ccc5[nH]c([C@@H]6CCCN6C(=O)[C@@H](NC(=O)OC)C(C)C)nc5c4Cl)N3c3ccc(C(C)(C)C)cc3)ccc2[nH]1)C(C)C` [Example 6.6, methyl {(2S)-1-[(2S)-2-{5-[(2R,5S)-1-(4-tert-butylphenyl)-5-{4-chloro-2-[(2S)-1-{(2S)-2-[(methoxycarbonyl)amino]-3-methylbutanoyl}pyrrolidin-2-yl]-1H-benzimidazol-5-yl}pyrrolidin-2-yl]-4-chloro-1H-benzimidazol-2-yl}pyrrolidin-1-yl]-3-methyl-1-oxobutan-2-yl}carbamate] was tested. Which EC50 did it give?
Its EC50 is less than 0.1 nM.
